Key:
[1] = tested on: A549 cells; test: A549 proliferation (viability) assay, Cell Titer Fluor, 72 hours; format: cell-based; settings: Homo sapiens
Procedure, shortened: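 1000 A549 cells/well, RPMI 1640/10% dialyzed FBS, 24 h attach; compound 72 h, 0.5% DMSO, 37 °C/5% CO2; Cell Titer Fluor fluorescence; EC50 via 4-parameter logistic.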

[2] = target: T1, GLS1 (purified recombinant human GAC) (Homo sapiens, UniProt O94925); test: GLS1 enzymatic activity assay (dual-coupled, Amplex UltraRed/resorufin); format: biochemical
T1 sequence (O94925 55-598 isoform O94925-3 limits assumed): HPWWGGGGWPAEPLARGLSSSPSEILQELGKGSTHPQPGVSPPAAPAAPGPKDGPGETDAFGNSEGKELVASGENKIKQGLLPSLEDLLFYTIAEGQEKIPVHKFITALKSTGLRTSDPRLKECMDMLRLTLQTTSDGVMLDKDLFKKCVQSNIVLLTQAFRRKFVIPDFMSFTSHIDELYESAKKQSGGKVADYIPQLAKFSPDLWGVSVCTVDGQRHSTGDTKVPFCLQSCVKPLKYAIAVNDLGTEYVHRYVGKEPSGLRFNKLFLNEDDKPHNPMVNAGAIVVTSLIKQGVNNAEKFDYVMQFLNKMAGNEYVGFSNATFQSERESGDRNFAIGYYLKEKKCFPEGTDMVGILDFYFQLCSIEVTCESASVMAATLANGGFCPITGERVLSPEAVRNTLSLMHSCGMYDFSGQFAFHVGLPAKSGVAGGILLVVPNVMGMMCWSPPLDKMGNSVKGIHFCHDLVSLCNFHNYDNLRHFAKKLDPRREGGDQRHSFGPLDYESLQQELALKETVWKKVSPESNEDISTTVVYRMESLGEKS
Procedure, shortened: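 GAC activity measured by coupling glutamate to glutamate oxidase and HRP, generating resorufin from Amplex UltraRed. Enzyme (2 nM) preincubated with 50 mM potassium phosphate 10 min at room temperature, then inhibitor 10 min; 1 mM glutamine substrate, 1% DMSO. Fluorescence 530/590 nm, kinetic or 20-min endpoint; IC50 from four-parameter logistic fit.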

Row | Structure (SMILES) | EC50 [1] | IC50 [2]
1 | O=C(NCc1cc(C(F)(F)F)ccn1)c1cn(CC(F)CCn2ccc(COc3cccc(Cl)c3)cc2=O)nn1 (stereo not shown) [Example 481, 1-{4-[4-(3-chlorophenoxymethyl)-2-oxo-1,2-dihydropyridin-1-yl]-2-fluorobutyl}-N-{[4-(trifluoromethyl)pyridin-2-yl]methyl}-1H-1,2,3-triazole-4-carboxamide] | 100 to 500 nM | < 100 nM
2 | CNC(=O)c1cn(CC(F)CCn2ccc(NC(=O)C(=O)N3CCCCC3)c(F)c2=O)nn1 (stereo not shown) [Example 429, 1-(2-fluoro-4-{3-fluoro-2-oxo-4-[2-oxo-2-(piperidin-1-yl)acetamido]-1,2-dihydropyridin-1-yl}butyl)-N-methyl-1H-1,2,3-triazole-4-carboxamide] | 500 to 5000 nM | 500 to 5000 nM
3 | O=C(Cc1ccccc1)Nc1ccn(CCCCCn2ccc(NC(=O)Cc3ccccc3)nc2=O)c(=O)n1 [Example 71, N-(2-oxo-1-{5-[2-oxo-4-(2-phenyl-acetamido)-1,2-dihydropyrimidin-1-yl]pentyl}-1,2-dihydropyrimidin-4-yl)-2-phenylacetamide] | > 5000 nM | 500 to 5000 nM
4 | COC(=O)Nc1ccn(CCCCc2ccc(NC(=O)Cc3ccccc3)nn2)c(=O)n1 [Example 93, methyl N-(2-oxo-1-{4-[6-(2-phenylacetamido)pyridazin-3-yl]butyl}-1,2-dihydropyrimidin-4-yl)carbamate] | 500 to 5000 nM | 100 to 500 nM
5 | O=C(NCc1cccc(OC(F)(F)F)c1)c1cn(CC(F)CCn2ccc(COc3ccccn3)cc2=O)nn1 (stereo not shown) [Example 480, 1-(2-fluoro-4-{2-oxo-4-[(pyridin-2-yloxy)methyl]-1,2-dihydropyridin-1-yl}butyl)-N-{[3-(trifluoromethoxy)phenyl]methyl}-1H-1,2,3-triazole-4-carboxamide] | 500 to 5000 nM | 100 to 500 nM
6 | O=C(Cc1cccc(OC(F)(F)F)c1)Nc1ccn(CCCCc2nnc(NC(=O)Cc3cccnc3)s2)c(=O)n1 [Example 81, N-[2-oxo-1-(4-{5-[2-(pyridin-3-yl)acetamido]-1,3,4-thiadiazol-2-yl]butyl)-1,2-dihydropyrimidin-4-yl]-2-[3-(trifluoromethoxy)phenyl]acetamide] | 500 to 5000 nM | < 100 nM
7 | O=C(NCc1cccc(OC(F)(F)F)c1)c1cn(CC(F)CCn2ccc(COc3ccccc3F)cc2=O)nn1 (stereo not shown) [Example 473, 1-{2-fluoro-4-[4-(2-fluorophenoxymethyl)-2-oxo-1,2-dihydropyridin-1-yl]butyl}-N-{[3-(trifluoromethoxy)phenyl]methyl}-1H-1,2,3-triazole-4-carboxamide] | 100 to 500 nM | < 100 nM
8 | Cn1cc(CC(=O)Nc2ccn(CCCCc3ccc(NC(=O)Cc4cccc(OC(F)(F)F)c4)nn3)c(=O)n2)cn1 [Example 114, N-[6-(4-{4-[2-(1-methyl-1H-pyrazol-4-yl)acetamido]-2-oxo-1,2-dihydropyrimidin-1-yl}butyl)pyridazin-3-yl]-2-[3-(trifluoromethoxy)phenyl]acetamide] | < 100 nM | < 100 nM
9 | O=C(Nc1ccn(CCC(F)Cn2cc(C(=O)NCc3cc(OC(F)(F)F)ccc3F)nn2)c(=O)c1F)C(=O)N1CCCCC1 (stereo not shown) [Example 422, 11-(2-fluoro-4-(3-fluoro-2-oxo-4-(2-oxo-2-(piperidin-1-yl)acetamido)pyridin-1(2H)-yl)butyl)-N-(2-fluoro-5-(trifluoromethoxy)benzyl)-1H-1,2,3-triazole-4-carboxamide] | < 100 nM | < 100 nM
10 | CC(C)(C)OC(=O)Nc1ccn(CCC(F)Cn2cc(C(=O)NCc3cc(Cl)ccc3F)nn2)c(=O)c1 (stereo not shown) [Example 233, tert-butyl N-{1-[4-(4-{[(5-chloro-2-fluorophenyl)methyl]carbamoyl}-1H-1,2,3-triazol-1-yl)-3-fluorobutyl]-2-oxo-1,2-dihydropyridin-4-yl}carbamate] | 500 to 5000 nM | < 100 nM
11 | O=C(Cc1ccccc1)Nc1ccn(CC[C@H](F)Cn2cc(C(=O)NCc3cccc(OC(F)(F)F)c3)nn2)c(=O)c1F [Example 127] | < 100 nM | < 100 nM

The next lines start with the values.

Row | EC50 [1] | IC50 [2] | Structure (SMILES)
12 | < 100 nM | < 100 nM | O=C(NCc1cccc(OC(F)(F)F)c1)c1cn(CCCCn2ccc(NC(=O)C(F)c3ccccc3)cc2=O)nn1 (stereo not shown) [Example 167, 1-{4-[4-(2-fluoro-2-phenylacetamido)-2-oxo-1,2-dihydropyridin-1-yl]butyl}-N-{[3-(trifluoromethoxy)phenyl]methyl}-1H-1,2,3-triazole-4-carboxamide]
13 | 500 to 5000 nM | < 100 nM | N#CC1CCN(CC(=O)Nc2ccn(CCC(F)Cn3cc(C(=O)NCc4cccc(OC(F)(F)F)c4)nn3)c(=O)c2)CC1 (stereo not shown) [Example 256, 1-(4-{4-[2-(4-cyanopiperidin-1-yl)acetamido]-2-oxo-1,2-dihydropyridin-1-yl}-2-fluorobutyl)-N-{[3-(trifluoromethoxy)phenyl]methyl}-1H-1,2,3-triazole-4-carboxamide]
14 | 100 to 500 nM | < 100 nM | COCCNC(=O)c1nnc(CCCCn2ccc(NC(=O)CC3CCCCC3)cc2=O)s1 [Example 451, 5-{4-[4-(2-cyclohexylacetamido)-2-oxo-1,2-dihydropyridin-1-yl]butyl)-N-(2-methoxyethyl)-1,3,4-thiadiazole-2-carboxamide]
15 | 500 to 5000 nM | < 100 nM | O=C(Cc1cscn1)Nc1ccn(CCC(F)Cn2cc(C(=O)NCc3cccc(OC(F)(F)F)c3)nn2)c(=O)c1 (stereo not shown) [Example 247, 1-(2-fluoro-4-{2-oxo-4-[2-(1,3-thiazol-4-yl)acetamido]-1,2-dihydropyridin-1-yl}butyl)-N-{[3-(trifluoromethoxy)phenyl]methyl}-1H-1,2,3-triazole-4-carboxamide]
16 | 100 to 500 nM | < 100 nM | CC(C)(C)OC(=O)Nc1ccn(CCC(F)Cn2cc(C(=O)NCc3cccc(OC(F)(F)F)c3)nn2)c(=O)c1 (stereo not shown) [Example 234, tert-butyl N-(1-{3-fluoro-4-[4-({[3-(trifluoromethoxy)phenyl]methyl]carbamoyl)-1H-1,2,3-triazol-1-yl]butyl}-2-oxo-1,2-dihydropyridin-4-yl)carbamate]
17 | 500 to 5000 nM | < 100 nM | O=C(CC1CCOCC1)Nc1ccn(CCCCn2cc(C(=O)NCc3cccc(OC(F)(F)F)c3)nn2)c(=O)c1 [Example 48, 1-(4-{4-[2-(oxan-4-yl)acetamido]-2-oxo-1,2-dihydropyridin-1-yl}butyl)-N-{[3-(trifluoromethoxy)phenyl]methyl}-1H-1,2,3-triazole-4-carboxamide]
18 | < 100 nM | < 100 nM | O=C(CC1CCCCC1)Nc1ccn(CCCCn2cc(C(=O)NCc3cccc(C(F)(F)F)c3)nn2)c(=O)c1 [Example 141, 1-{4-[4-(2-cyclohexylacetamido)-2-oxo-1,2-dihydropyridin-1-yl]butyl}-N-{[3-(trifluoromethyl)phenyl]methyl}-1H-1,2,3-triazole-4-carboxamide]
19 | 500 to 5000 nM | 100 to 500 nM | O=C(O)C(=O)Nc1ccn(CCC(F)Cn2cc(C(=O)NCc3cccc(OC(F)(F)F)c3)nn2)c(=O)c1F (stereo not shown) [Example 359, [(3-fluoro-1-{3-fluoro-4-[4-({[3-(trifluoromethoxy)phenyl]methyl}carbamoyl)-1H-1,2,3-triazol-1-yl]butyl}-2-oxo-1,2-dihydropyridin-4-yl)carbamoyl]formic acid]
20 | < 100 nM | < 100 nM | O=C(NCc1cccc(OC(F)(F)F)c1)c1cn(CC(F)CCn2ccc(NC(=O)[C@@H](O)c3ccccc3)cc2=O)nn1 (stereo partly drawn) [Example 224, 1-(2-fluoro-4-{4-[(2S)-2-hydroxy-2-phenylacetamido]-2-oxo-1,2-dihydropyridin-1-yl}butyl)-N-{[3-(trifluoromethoxy)phenyl]methyl}-1H-1,2,3-triazole-4-carboxamide]
21 | 500 to 5000 nM | < 100 nM | O=C(CC1CCCOC1)Nc1ccn(CCCCn2cc(C(=O)NCc3cccc(OC(F)(F)F)c3)nn2)c(=O)c1 (stereo not shown) [Example 56, 1-(4-{4-[2-(oxan-3-yl)acetamido]-2-oxo-1,2-dihydropyridin-1-yl}butyl)-N-{[3-(trifluoromethoxy)phenyl]methyl}-1H-1,2,3-triazole-4-carboxamide]
22 | 500 to 5000 nM | < 100 nM | O=C(CC1CCOC1)Nc1ccn(CCCCn2cc(C(=O)NCc3cccc(OC(F)(F)F)c3)nn2)c(=O)c1 (stereo not shown) [Example 47, 1-(4-{2-oxo-4-[2-(oxolan-3-yl)acetamido]-1,2-dihydropyridin-1-yl}butyl)-N-{[3-(trifluoromethoxy)phenyl]methyl}-1H-1,2,3-triazole-4-carboxamide]
23 | 100 to 500 nM | < 100 nM | O=C(Cc1ccccc1)Nc1ccn(CCC(F)Cn2cc(C(=O)NCc3cc(Cl)ccc3F)nn2)c(=O)c1 (stereo not shown) [Example 216, N-[(5-chloro-2-fluorophenyl)methyl]-1-{2-fluoro-4-[2-oxo-4-(2-phenylacetamido)-1,2-dihydropyridin-1-yl]butyl}-1H-1,2,3-triazole-4-carboxamide]

— patent US20160002204A1 (Board of Regents, The University of Texas System, priority 2014, published 2016)
